Measured values published in patent US4446133A, “1-Phenyl-4-carbamoyl piperazine compounds, process for preparation thereof and utilizations thereof” (Misuitoatsu Chemicals, Inc., priority 1980, dated 1984).
Structures can show the parent of a compound that is named as a salt.

How the values were obtained:
[1] = tested on: delayed hypersensitivity; experiment: Test 1: Test of Reinforcement of Delayed Hypersensitivity (picryl chloride); assay type: in vivo, ICR male mice; conditions: mouse, in vivo
From the text: This system was used for the test of reinforcement of delayed hypersensitivity.
One group of eight ICR male mice, each having a body weight of about 30 g, were used for the test.
Sensitization was effected by coating a 7% solution of picryl chloride in a 4/1 mixture of olive oil and acetone on the shaved abdomen of the mouse.
Simultaneously with sensitization, a solution or suspension of the compound of the present invention in a 0.2% solution of carboxymethyl cellulose in a physiological saline was orally administered to the mouse at a dose of 50 mg per Kg of the body weight. To the control group, a 0.2% carboxymethyl cellulose solution in a physiological saline was similarly administered.
The delayed hypersensitivity was challenged 7 days after sensitization by gripping the ear of the mouse by a forceps wrapped with a felt impregnated with a 1% solution of picryl chloride in olive oil and coating the ear with the solution. The thickness of the ear was measured before challenging and 24 hours after challenging and the ratio of increase of the thickness (average value of both the ears in eight mice±standard deviation) was obtained as shown in Table 1.
For comparison, the test was similarly carried out by using Levamisole hydrochloride, and the obtained results are shown in Table 1. F.t tests were carried out. The group in which the test result was significant at a level of P<0.05 was marked by *, and the group in which the test result was significant at a level of P<0.01 was marked by **.

[2] = tested on: adjuvant arthritis; experiment: Test 2: Adjuvant Arthritis Test; assay type: in vivo, SD male rats; conditions: 5 mg/kg subcutaneous, 9 times, left hind leg, * P<0.05, ** P<0.01
[3] = tested on: EL-4 leukemic cells; experiment: Test 3: In-Vitro Test of Inhibition of Growth of Cancer Cell by Macrophage; assay type: cell-based; conditions: for Inhibition of take-in of 3H-thymidine by EL-4 cells / activation of macrophage, in words: 8 mg/kg intraperitoneal
Experimental: The results of the test of the action of the effective ingredient of the present invention on the macrophage will now be described with reference to the following Test 3. More specifically, the separated macrophage and EL-4 leukemic cell were mixed and cultured, and ^3 H-thymidine was added to a culture medium and the quantity of ^3 H-thymidine incorporated into the EL-4 cell was determined to examine the activity of the macrophage. When the macrophage is activated by administration of the effective ingredient of the present invention, inhibition of the growth of EL-4 cell, that is, phagocytosis of the cancer cell by the macrophage, is observed. Accordingly, if the take-in amount of ^3 H-thymidine is measured and this amount is reduced, it is confirmed that the macrophage has been activated. […] The dose was 8 mg per Kg of the body weight. To the control group, a physiological saline solution was similarly administered. After passage of 4 days, exuded abdominal cells were collected and deposited on a plastic Petri dish to collect macrophages. Then, 1×10^6 of so obtained macrophages and 1×10^5 of EL-4 leukemic cells of C57 BL/6J mouse were mixed and cultured in an RPMI 1640 culture medium to which 10% of bovine embryo serum was added (at 37° C. in the presence of 5% of CO2) for 24 hours. Then, 0.1μ Ci of ^3 H-thymidine was added and culturing was further conducted for 16 hours. Cells were collected on a filter paper from the culture medium and the amount of ^3 H-thymidine taken in was determined by a liquid scintillation counter. […] For comparison, the test was similarly carried out by using Levamisol hydrochloride.

[4] = tested on: Sarcoma 180; experiment: Test 4: Test of Antitumor Effect to Sarcoma 180 by Oral Administration; assay type: in vivo, ICR female mice
Experimental: To the control group, a physiological saline solution was similarly administered. The dose of the compound was 100 mg per Kg of the body weight. The diameter D (mm) of the tumor was measured, and the average value and the number N of the living mice were determined to obtain results shown in Table 4.

[5] = tested on: Sarcoma 180; experiment: Test 5: Test of Antitumor Effect to Sarcoma 180 by Subcutaneous Administration; assay type: in vivo, ICR female mice; conditions: 20 mg/kg subcutaneous
Experimental: To the control group, a physiological saline solution was similarly administered. […] The diameter D (mm) of the tumor was measured, and the average value and the number N of the living mice were determined to obtain results shown in Table 4.

Q: For `c1ccc([C@H]2CN3CCSC3=N2)cc1` [Levamisole hydrochloride, reference compound], which “Ratio of Increase of Ear Thickness (average value ± standard variation)” value [1] is on record?
A: 35.6 ± 2.4%

Q: What about the “Swelling Ratio (average value ± standard variation), 15 days” value ([2]; 15 days, control 84.4 ± 9.0) of the same molecule?
A: 65.2 ± 5.9%

Q: What about the “Swelling Ratio (average value ± standard variation), 18 days” value ([2]; 18 days, control 103.2 ± 9.7) of the same molecule?
A: 69.3 ± 7.1%

Q: What about the “Swelling Ratio (average value ± standard variation), 21 days” value ([2]; 21 days, control 107.5 ± 13.3) of the same molecule?
A: 80.7 ± 9.6%

Q: And the “Inhibition of take-in of 3H-thymidine by EL-4 cells / activation of macrophage, in words” value [3]?
A: does not exhibit such action

Q: And the “Take-in Ratio of 3H-thymidine (average value)” value ([3]; 8 mg/kg intraperitoneal to mice, macrophages collected after 4 days, mixed with EL-4 cells, control 80.2)?
A: 49.0%

Q: What about the “Inhibition of take-in of 3H-thymidine by EL-4 cells / activation of macrophage, in words” value ([3]; listed as Levamisole) of the same molecule?
A: hardly exhibits such action

Q: And the “D: average diameter of tumor, 2 weeks” value ([4]; 100 mg/kg oral once a day, 10 days, 2 weeks, control 10.6)?
A: 10.2 mm

Q: What about the “D: average diameter of tumor, 4 weeks” value ([4]; 100 mg/kg oral once a day, 10 days, 4 weeks, control 15.2) of the same molecule?
A: 16.2 mm

Q: What about the “D: average diameter of tumor, 6 weeks” value ([4]; 100 mg/kg oral once a day, 10 days, 6 weeks, control 22.4) of the same molecule?
A: 20.7 mm

Q: What about the “D: average diameter of tumor, 8 weeks” value ([4]; 100 mg/kg oral once a day, 10 days, 8 weeks, control 31.5) of the same molecule?
A: 29.6 mm

Q: What about the “D: average diameter of tumor, 10 weeks” value ([4]; 100 mg/kg oral once a day, 10 days, 10 weeks, control 37.6) of the same molecule?
A: 28.1 mm

Q: What about the “Carcinostatic action on Sarcoma 180, in words” value ([4]; 100 mg/kg oral, repeated) of the same molecule?
A: no substantial carcinostatic action was observed

Q: What about the “N: number of living mice, 0 weeks” value ([4]; 100 mg/kg oral, of 6 mice, 0 weeks, control 6) of the same molecule?
A: 6

Q: What about the “N: number of living mice, 2 weeks” value ([4]; 100 mg/kg oral, of 6 mice, 2 weeks, control 6) of the same molecule?
A: 6

Q: And the “N: number of living mice, 4 weeks” value ([4]; 100 mg/kg oral, of 6 mice, 4 weeks, control 6)?
A: 6

Q: And the “N: number of living mice, 6 weeks” value ([4]; 100 mg/kg oral, of 6 mice, 6 weeks, control 6)?
A: 6

Q: What about the “N: number of living mice, 8 weeks” value ([4]; 100 mg/kg oral, of 6 mice, 8 weeks, control 5) of the same molecule?
A: 6

Q: What about the “N: number of living mice, 10 weeks” value ([4]; 100 mg/kg oral, of 6 mice, 10 weeks, control 1) of the same molecule?
A: 3

Q: What about the “Carcinostatic activity on Sarcoma 180, in words” value [5] of the same molecule?
A: no substantial carcinostatic activity

Q: What about the “D: average diameter of tumor, 2 weeks” value ([5]; 2 weeks, control 10.8) of the same molecule?
A: 7.7 mm

Q: And the “D: average diameter of tumor, 4 weeks” value ([5]; 4 weeks, control 16.6)?
A: 14.8 mm

Q: What about the “D: average diameter of tumor, 6 weeks” value ([5]; 6 weeks, control 20.3) of the same molecule?
A: 14.4 mm

Q: And the “D: average diameter of tumor, 8 weeks” value ([5]; 8 weeks, control 31.3)?
A: 30.2 mm

Q: What about the “D: average diameter of tumor, 10 weeks” value ([5]; 10 weeks, control 40.5) of the same molecule?
A: 31.6 mm

Q: What about the “N: number of living mice, 0 weeks” value ([5]; of 6 mice, 0 weeks, control 6) of the same molecule?
A: 6

Q: What about the “N: number of living mice, 2 weeks” value ([5]; of 6 mice, 2 weeks, control 6) of the same molecule?
A: 6

Q: What about the “N: number of living mice, 4 weeks” value ([5]; of 6 mice, 4 weeks, control 6) of the same molecule?
A: 6

Q: And the “N: number of living mice, 6 weeks” value ([5]; of 6 mice, 6 weeks, control 6)?
A: 6

Q: What about the “N: number of living mice, 8 weeks” value ([5]; of 6 mice, 8 weeks, control 4) of the same molecule?
A: 3

Q: And the “N: number of living mice, 10 weeks” value ([5]; of 6 mice, 10 weeks, control 1)?
A: 2
